Data taken from patent US8029980B2, “Identification and use of agents that modulate oncogenic transcription agent activity” (The Board of Trustees of the University of Illinois, priority 2006, dated 2011).

Tests used:
293 and Hela cells = assay: Sensitization to TNF-alpha-induced apoptosis (cleaved caspase-3 immunoblot); format: cell-based, human; conditions: 1 μM Siomycin A and 10 ng/ml TNF-alpha, 24 hours
Experimental: FIG. 14. […] 293 (A) and Hela (B) cells were pretreated with the indicated concentrations of Sulfazalazine (control) for overnight. The following day the cells were treated with 1 μM Siomycin A and 10 ng/ml TNF-alpha as indicated. Twenty-four hours later the cells were harvested and the total cell lysates were used to determine the level of cleaved caspase-3. β-actin was used as the loading control.

FoxM1 [1] = molecular target: T1, FoxM1 (Homo sapiens, UniProt Q08050); assay: FoxM1-responsive firefly luciferase reporter assay in C3-Luc cells; format: cell-based; conditions: C3-Luc cells
T1 construct: expressed in transfected cells; host or cells: U2OS clone C3 / C3-Luc
T1 sequence (Q08050 1-748 isoform Q08050-2): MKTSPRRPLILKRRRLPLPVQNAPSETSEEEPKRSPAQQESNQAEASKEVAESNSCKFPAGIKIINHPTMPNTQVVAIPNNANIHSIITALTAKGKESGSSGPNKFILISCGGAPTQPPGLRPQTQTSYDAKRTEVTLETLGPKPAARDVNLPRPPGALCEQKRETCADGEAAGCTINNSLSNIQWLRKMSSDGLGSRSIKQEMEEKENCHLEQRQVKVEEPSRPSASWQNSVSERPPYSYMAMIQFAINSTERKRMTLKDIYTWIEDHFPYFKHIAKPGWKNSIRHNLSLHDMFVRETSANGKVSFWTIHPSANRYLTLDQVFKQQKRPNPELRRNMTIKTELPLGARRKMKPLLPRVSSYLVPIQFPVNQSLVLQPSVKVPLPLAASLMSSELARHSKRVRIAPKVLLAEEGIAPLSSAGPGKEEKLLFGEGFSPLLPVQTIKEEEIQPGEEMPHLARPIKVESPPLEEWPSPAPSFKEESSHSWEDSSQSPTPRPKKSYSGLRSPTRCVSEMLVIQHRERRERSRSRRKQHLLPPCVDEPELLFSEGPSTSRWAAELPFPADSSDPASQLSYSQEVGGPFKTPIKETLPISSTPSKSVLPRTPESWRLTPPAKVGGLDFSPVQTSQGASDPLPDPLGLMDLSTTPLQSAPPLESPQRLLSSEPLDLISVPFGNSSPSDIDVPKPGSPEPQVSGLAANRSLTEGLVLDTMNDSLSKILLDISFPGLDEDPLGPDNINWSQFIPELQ
Experimental: FIG. 6. Thiostrepton and Siomycin A both inhibit FoxM1 transcriptional activity. […] The next day, the luciferase activity was measured with the Dual-Luciferase reporter assay system (E1910; Promega) according to the manufacturer's instructions.
The development of U2OS clone C3 cell line with doxycyclin inducible FoxM1-GFP fusion protein has been described before (17). This cell line was transfected with a plasmid expressing firefly luciferase under the control of 6× FoxM1 responsive (FoxRE) promoter (17), along with pcDNA3.1 (Invitrogen, Carlsbad, Calif.) plasmid that expresses neomycin phospho-transferase. […] This clone was further transfected with pRL-CMV (Promega) that expresses renilla luciferase along with pLPCX-puro (Clontech), and the cells were selected in 2 μg/ml puromycin. This cell line which expresses FoxM1-dependent firefly luciferase and constitutive renilla luciferase was named as C3-Luc and used for the screening of compound libraries (Challenge set and Diversity set) from the National Cancer Institute.
For high-throughput screening, the C3-Luc cells were grown in 96-well plates and treated overnight with a combination of 1 μg/ml doxycycline and 10 μM of compounds from the library. Next day, the firefly and renilla luciferase activities were measured with the Dual Glo system (E2940; Promega).
For the other luciferase assay experiments, the cells were treated as indicated in the FIG. 1 legend and the luciferase activity was measured using the Dual Luciferase reporter assay system (E1910; Promega) according to the manufacturer's instructions.

[2] = system: HCT116 colon cancer cells; conditions: another study (ref. 27); cited from earlier work
FoxM1 [3] = assay: FoxM1 protein (immunoblot) and mRNA (RT-PCR) levels in C3-Luc cells; format: cell-based, human; conditions: 24 hrs
Source text: FIG. 3. Mechanisms of FoxM1 inhibition by Siomycin A. (A) C3-Luc cells treated as indicated were harvested after 8 hrs and cell lysates were used for immunoprecipitation of FoxM1 protein. These samples were resolved on an SDS-PAGE gel and immunoblotted to determine total and phospho-FoxM1 levels. (B) C3-Luc cells treated with Siomycin A or DMSO were harvested 24 hrs later and the lysates were used to determine FoxM1 protein levels by immunoblotting. (C) RNA from C3-Luc cells treated with Siomycin A or DMSO for 24 hrs was used to determine levels of FoxM1 mRNA using real-time quantitative RT-PCR.
Cells treated with Siomycin A or DMSO (control) were harvested 24 hrs later and RNA was extracted using the TRIzol reagent (15596-026; Invitrogen). cDNA was prepared from this RNA using the Bio-Rad cDNA synthesis kit. […]
Immunoblotting was performed as described (18-20) with antibodies specific for p21 (556431; BD Pharmingen), survivin (sc-10811; Santa Cruz), cleaved caspase-3 (9664; Cell Signaling), and β-actin (A5441; Sigma) antibodies. Immunoblot for FoxM1 was done using the previously generated rabbit antisera (2), and phospho-FoxM1 was detected using the MPM2 monoclonal antibody (Upstate Biotechnology) which recognizes the phosphorylated protein sequence phosphoserine/phosphothreonine-proline.

C=C(NC(=O)C(=C)NC(=O)c1csc(C2=N[C@@H]3c4csc(n4)[C@H]4NC(=O)c5csc(n5)[C@H]([C@](C)(O)[C@@H](C)O)NC(=O)[C@H]5CSC(=N5)/C(=C/C)NC(=O)[C@H]([C@@H](C)O)NC(=O)c5csc(n5)[C@]3(CC2)NC(=O)[C@H](C)NC(=O)C(=C)NC(=O)C(=C)NC(=O)[C@H](C(C)C)N[C@@H]2C=Cc3c([C@H](C)O)cc(nc3[C@H]2O)C(=O)O[C@@H]4C)n1)C(N)=O [Siomycin A]
sensitization to TNF-alpha-induced apoptosis (293 and Hela cells): sensitize human cancer cells to TNF-alpha-induced apoptosis | relative firefly luciferase activity (FoxM1 transcriptional activity) (FoxM1 [1]; 1 μg/mL doxycycline (60-fold induction), 5 μM compound, 24 hrs): efficiently reduced the value to basal levels | relative firefly luciferase activity (exogenous FoxM1 transcriptional activity) (FoxM1 [1]; 1 μg/ml doxycycline induction (~16-fold), 10 μM compound, overnight): efficiently reduced the value to basal levels | cell death mechanism in HCT116 cells [2]: induced Endoplasmic reticulum stress, and lysosomal membrane permeabilization followed by cell death | FoxM1 mRNA levels (FoxM1 [3]): significantly decreased | FoxM1 protein levels (FoxM1 [3]): significantly decreased
